Results published in US20260152487A1 (Sitryx Therapeutics Limited, priority 2021, published 2026).

Key:
[1] = target: T1, recombinant human PKM2 (Homo sapiens, UniProt P14618); assay: Human PKM2 activation assay (Kinase-Glo Plus luminescent detection of generated ATP); format: biochemical; conditions: for Emax: percentage activation normalised to DMSO vehicle (LOW) and 5 μM TEPP-46 (HIGH), read-out: hPKM2 Emax; for EC50: recombinant human PKM2 activation, 4-parameter logistic fit, read-out: hPKM2 EC50
T1 construct: His (N); purchased R&D Systems
In short: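 N-His-tagged recombinant hPKM2 ([…]) with PEP and ADP was incubated with compound for 60 min at 26 °C, shaking, in 50 mM imidazole, 50 mM KCl, 7 mM MgCl2, 0.01% Tween20, 0.05% BSA, pH 7.2. ATP produced was read by Kinase-Glo Plus luminescence after 15 min.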

[2] = test system: A549 cells; assay: A549 cell proliferation in low-serine medium (CellTiter-Glo 2.0 viable cell number); format: cell-based; conditions: Homo sapiens, 72 h, 3 days, Assay Medium with 20 μM L-serine
Protocol: The effect of compounds of Formula (Ia) on A549 cell proliferation in low-serine medium was assessed using a luminescence assay of viable cell number (CellTiter-Glo® 2.0, Promega) duplexed with a fluorescent cytotoxicity assessment (CelITox™ Green, Promega). Cell culture reagents were from ThermoFisher unless specified otherwise. Assay reagents were from Sigma-Aldrich unless specified otherwise. Test Compounds were prepared as 10 mM DMSO stocks and dilution series prepared in DMSO for direct dilution into culture medium.
Cells were passaged every 3-4 days at 80-90% confluence. The cell monolayer was washed twice with room-temperature Ca^2+/Mg-free PBS and 4 ml room-temperature trypsin-EDTA added to the flask. After 5 minutes' incubation (37° C., 5% CO2) to detach cells, trypsin was quenched with 13 ml warmed complete growth medium and the cells harvested and diluted to 2.4×10^4 cells/ml for dispensing into 384-well clear-bottom black-walled plates (600 cells/well).
Following overnight incubation, growth medium was aspirated from each well and the cells washed twice with Assay Medium comprising Basal Medium Eagle supplemented with 3% heat-inactivated dialysed FBS plus 2 mM L-glutamine plus 20 μM L-serine (Sigma-Aldrich). After aspiration of the final wash medium, Assay Medium containing Test Compound was added to each well. DMSO vehicle controls were included on each plate.
Cells were incubated for 3 days in a humidified incubator (37° C., 5% CO2) at which point CelITox™ Green and CellTiter-Glo® reagents were prepared according to the manufacturer's instructions. Triton-X was added to HIGH wells for cytotoxicity determination and the plate incubated for 30 minutes (20° C., ambient humidity and pCO2). CelITox™ Green reagent was added to each well and the plate covered, placed on an orbital shaker @450 rpm for 2 minutes, and incubated in the dark for 15 minutes (20° C., ambient humidity and pCO2). Endpoint fluorescence was measured using a plate reader (PHERAstar® FSX, BMG Labtech).
Following cytotoxicity determination, CellTiter-Glo® reagent was added to each well and the plate placed on an orbital shaker @450 rpm for 2 minutes to lyse cells. Plates were incubated in the dark for 15-30 minutes (20° C., ambient humidity and pCO2) prior to endpoint luminescence measurement (PHERAstar® FSX, BMG Labtech).
Proliferation was calculated by normalizing luminescence signals to LOW controls obtained from a parallel plate processed at the time of Test Compound challenge and HIGH (DMSO vehicle) wells from the compound plate. IC50 values were determined from a 4-parameter logistic fit of compound concentration-response curves.

T1 sequence (P14618 2-531 limits assumed): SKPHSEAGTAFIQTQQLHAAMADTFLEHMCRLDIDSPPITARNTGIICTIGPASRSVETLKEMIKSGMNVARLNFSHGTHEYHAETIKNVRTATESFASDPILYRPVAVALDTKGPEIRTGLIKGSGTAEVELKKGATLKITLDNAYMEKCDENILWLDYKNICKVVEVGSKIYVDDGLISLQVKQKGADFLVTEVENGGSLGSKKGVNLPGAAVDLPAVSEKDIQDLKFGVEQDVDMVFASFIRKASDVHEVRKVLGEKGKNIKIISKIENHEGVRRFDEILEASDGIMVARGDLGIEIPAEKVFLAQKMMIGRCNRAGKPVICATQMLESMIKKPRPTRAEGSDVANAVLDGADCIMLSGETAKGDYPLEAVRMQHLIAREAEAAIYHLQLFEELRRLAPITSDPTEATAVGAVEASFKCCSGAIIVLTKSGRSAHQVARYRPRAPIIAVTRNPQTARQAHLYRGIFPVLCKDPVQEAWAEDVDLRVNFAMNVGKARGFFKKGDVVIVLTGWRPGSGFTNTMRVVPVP

| SMILES | Emax [1] | EC50 [1] | IC50 [2] |
| --- | --- | --- | --- |
| COCC(c1ccc(OC)nc1)n1ncc2cc(S(=O)(=O)c3ccccc3)ccc2c1=O (stereo not drawn) [Example 8, 2-(2-methoxy-1-(6-methoxypyridin-3-yl)ethyl)-6-(phenylsulfonyl)phthalazin-1(2H)-one] | 80.8% | 931 nM | 218 nM |
| COc1ccccc1Cn1ncc2cc(S(=O)(=O)c3ccccc3)ccc2c1=O [Example 79, 2-(2-methoxybenzyl)-6-(phenylsulfonyl)phthalazin-1(2H)-one] | 90.2% | 203 nM | 19.4 nM |
| O=c1c2ccc(S(=O)(=O)c3ccccc3)cc2cnn1Cc1ccccc1CO [Example 20, 2-(2-(hydroxymethyl)benzyl)-6-(phenylsulfonyl)phthalazin-1(2H)-one] | 90.7% | 249 nM | 6.4 nM |
| Cc1nc(Cn2ncc3cc(S(=O)(=O)c4ccccc4)ccc3c2=O)cs1 [Example 77, 2-((2-methylthiazol-4-yl)methyl)-6-(phenylsulfonyl)phthalazin-1(2H)-one] | 106% | 63 nM | 4 nM |
| COc1ccc(S(=O)(=O)c2ccc3c(=O)n(Cc4c(C)ccnc4O)ncc3c2)cc1 [Example 99, 2-((2-hydroxy-4-methylpyridin-3-yl)methyl)-6-(4-methoxyphenylsulfonyl)phthalazin-1(2H)-one] | 107% | 138 nM | 4.6 nM |
| COc1ccc(S(=O)(=O)c2ccc3c(=O)n(Cc4ccc(OC)cc4C(N)=O)ncc3c2)cc1 [Example 106, 5-methoxy-2-((6-(4-methoxyphenylsulfonyl)-1-oxophthalazin-2(1H)-yl)methyl)benzamide] | 93% | 142 nM | 6.2 nM |
| O=c1c2ccc(S(=O)(=O)c3ccccc3)cc2cnn1Cc1ccccc1 [Example 71, 2-benzyl-6-(phenylsulfonyl)phthalazin-1(2H)-one] | 102% | 115 nM | 14.1 nM |
| COCC(c1ccccc1)n1ncc2cc(S(=O)(=O)c3ccccc3)ccc2c1=O (stereo not drawn) [Example 67, 2-(2-methoxy-1-phenylethyl)-6-(phenylsulfonyl)phthalazin-1(2H)-one] | 91.4% | 185 nM | 3.3 nM |
| CNC(=O)c1occc1Cn1ncc2cc(S(=O)(=O)c3ccc(OC)cc3)ccc2c1=O [Example 17, 3-((6-((4-methoxyphenyl)sulfonyl)-1-oxophthalazin-2(1H)-yl)methyl)-N-methylfuran-2-carboxamide] | 54.9% | 112 nM | 2.9 nM |
| COc1ccc(S(=O)(=O)c2ccc3c(=O)n(Cc4c(Cl)ccnc4O)ncc3c2)cc1 [Example 102, 2-((4-chloro-2-hydroxypyridin-3-yl)methyl)-6-(4-methoxyphenylsulfonyl) phthalazin-1(2H)-one] | 94.9% | 69.9 nM | 2.2 nM |
| Cc1c[nH]nc1Cn1ncc2cc(S(=O)(=O)c3ccccc3)ccc2c1=O [Example 12, 2-((4-methyl-1H-pyrazol-3-yl)methyl)-6-(phenylsulfonyl)phthalazin-1(2H)-one] | 92% | 63.6 nM | 2.7 nM |
| O=c1c2ccc(S(=O)(=O)c3ccccc3)cc2cnn1Cc1cccc2nccn12 [Example 34, 2-(imidazo[1,2-a]pyridin-5-ylmethyl)-6-(phenylsulfonyl)phthalazin-1(2H)-one] | 79% | 506 nM | 64.8 nM |
| COc1ccc(S(=O)(=O)c2ccc3c(=O)n(Cc4cccnc4)ncc3c2)cc1 [Example 42, 6-((4-methoxyphenyl)sulfonyl)-2-(pyridin-3-ylmethyl)phthalazin-1(2H)-one] | 103% | 64.5 nM | 1.5 nM |
| COc1ccc(C(C)n2ncc3cc(S(=O)(=O)c4ccccc4)ccc3c2=O)cn1 (stereo not drawn) [Example 74, 2-(1-(6-methoxypyridin-3-yl)ethyl)-6-(phenylsulfonyl)phthalazin-1(2H)-one] | 91.2% | 218 nM | 38.7 nM |
| COc1ccc(S(=O)(=O)c2ccc3c(=O)n(Cc4c(F)cc(OC)cc4F)ncc3c2)cc1 [Example 53, 2-(2,6-difluoro-4-methoxybenzyl)-6-((4-methoxyphenyl)sulfonyl)phthalazin-1(2H)-one] | 89.2% | 59.1 nM | 5.7 nM |
| O=c1c2ccc(S(=O)(=O)c3ccccc3)cc2cnn1Cc1ccn(CCO)n1 [Example 10, 2-((1-(2-hydroxyethyl)-1H-pyrazol-3-yl)methyl)-6-(phenylsulfonyl)phthalazin-1(2H)-one] | 98.8% | 166 nM | 7.8 nM |
| COc1ccc(S(=O)(=O)c2ccc3c(=O)n(Cc4cccc(OC)c4F)ncc3c2)cc1 [Example 52, 2-(2-fluoro-3-methoxybenzyl)-6-((4-methoxyphenyl)sulfonyl)phthalazin-1(2H)-one] | 101% | 59.7 nM | 1.9 nM |
| O=c1c2ccc(S(=O)(=O)c3ccccc3)cc2cnn1C(CO)c1ccccc1 (stereo not drawn) [Example 19, 2-(2-hydroxy-1-phenylethyl)-6-(phenylsulfonyl)phthalazin-1(2H)-one] | 65.3% | 133 nM | 4.2 nM |
| COc1ccc(S(=O)(=O)c2ccc3c(=O)n(Cc4cc[nH]n4)ncc3c2)cc1 [Example 6, 2-((1H-pyrazol-3-yl)methyl)-6-((4-methoxyphenyl)sulfonyl)phthalazin-1(2H)-one] | 109% | 38.9 nM | 1.7 nM |
| COCC(c1ccccc1)n1ncc2cc(S(=O)(=O)c3ccc(OC)cc3)ccc2c1=O (stereo not drawn) [Example 82, 2-(2-methoxy-1-phenylethyl)-6-((4-methoxyphenyl)sulfonyl)phthalazin-1(2H)-one] | 87.4% | 80.9 nM | 3.5 nM |
| NC(=O)c1ccccc1Cn1ncc2cc(S(=O)(=O)c3ccccc3)ccc2c1=O [Example 66, 2-((1-oxo-6-(phenylsulfonyl)phthalazin-2(1H)-yl)methyl)benzamide] | 88.5% | 115 nM | 4.3 nM |
| COc1cccc(Cn2ncc3cc(S(=O)(=O)c4ccccc4)ccc3c2=O)c1 [Example 81, 2-(3-methoxybenzyl)-6-(phenylsulfonyl)phthalazin-1(2H)-one] | 98.9% | 49.8 nM | 6.7 nM |
| COc1ccc(S(=O)(=O)c2ccc3c(=O)n(Cc4cccc(OC(F)F)c4)ncc3c2)cc1 [Example 40, 2-(3-(difluoromethoxy)benzyl)-6-((4-methoxyphenyl)sulfonyl)phthalazin-1(2H)-one] | 90% | 42.7 nM | 3.7 nM |
| COc1ccc(S(=O)(=O)c2ccc3c(=O)n(Cc4ccc5c(c4)CCO5)ncc3c2)cc1 [Example 47, 2-((2,3-dihydrobenzofuran-5-yl)methyl)-6-((4-methoxyphenyl)sulfonyl)phthalazin-1(2H)-one] | 87.9% | 25.5 nM | 0.5 nM |
| COc1ccc(S(=O)(=O)c2ccc3c(=O)n(CCc4ccccc4)ncc3c2)cc1 [Example 44, 6-((4-methoxyphenyl)sulfonyl)-2-phenethylphthalazin-1(2H)-one] | 63% | 367 nM | 41.8 nM |
| COc1ccc(S(=O)(=O)c2ccc3c(=O)n(Cc4c(F)ccnc4O)ncc3c2)cc1 [Example 103, 2-((4-fluoro-2-hydroxypyridin-3-yl)methyl)-6-(4-methoxyphenylsulfonyl) phthalazin-1(2H)-one] | 98.8% | 41.3 nM | 0.7 nM |
| Cn1cc(Cl)c(Cn2ncc3cc(S(=O)(=O)c4ccccc4)ccc3c2=O)n1 [Example 76, 2-((4-chloro-1-methyl-1H-pyrazol-3-yl)methyl)-6-(phenylsulfonyl)phthalazin-1(2H)-one] | 101% | 105 nM | 4.1 nM |
| O=c1c2ccc(S(=O)(=O)c3ccccc3)cc2cnn1Cc1ccc(OCCO)nc1 [Example 21, 2-((6-(2-hydroxyethoxy)pyridin-3-yl)methyl)-6-(phenylsulfonyl)phthalazin-1(2H)-one] | 102% | 131 nM | 12.1 nM |
